# Test results: patent US7423159B2, “Agent for preventing or treating neuropathy” (Takeda Pharmaceutical Company Limited, priority 2002, dated 2008)
row,SMILES,melting point [°C]
1,COP(=O)(Cc1ccc(NC(=O)/C=C/c2cnn(C)c2-c2ccccc2)cc1)OC,219 to 220
2,CCOP(=O)(Cc1ccc(NC(=O)/C=C/c2cn[nH]c2-c2ccc(F)cc2)cc1)OCC,181 to 182
3,COP(=O)(Cc1ccc(NC(=O)/C=C/c2cnn(C)c2-c2ccc(C(F)(F)F)cc2)cc1)OC,212 to 213
4,CCOP(=O)(Cc1ccc(NC(=O)/C=C/c2cnn(C)c2-c2ccc(C(F)(F)F)cc2)cc1)OCC,200 to 201
5,COP(=O)(Cc1ccc(NC(=O)/C=C/c2cnn(C)c2-c2ccccc2F)cc1)OC,220 to 221
6,COP(=O)(Cc1ccc(NC(=O)/C=C/c2cnn(C)c2-c2ccoc2)cc1)OC,176 to 177
7,COP(=O)(Cc1ccc(NC(=O)/C=C/c2cnn(C)c2-c2cccs2)cc1)OC,247 to 248
8,CCOP(=O)(Cc1ccc(NC(=O)/C=C/c2cnn(C)c2-c2ccccc2F)cc1)OCC,238 to 240
9,CCOP(=O)(Cc1ccc(NC(=O)/C=C/c2cnn(C)c2-c2cccnc2)cc1)OCC,211 to 214
10,CCOP(=O)(Cc1ccc(NC(=O)/C=C/c2cnn(C)c2C)cc1)OCC,228 to 230
11,CCOP(=O)(Cc1ccc(NC(=O)/C=C/c2cnn(C)c2)cc1)OCC,201 to 202
12,COP(=O)(Cc1ccc(NC(=O)/C=C/c2cnn(C)c2-c2ccc(Br)cc2)cc1)OC,212 to 214
13,CCOP(=O)(Cc1ccc(NC(=O)/C=C/c2cnn(C)c2-c2ccc(Br)cc2)cc1)OCC,229 to 231
14,COP(=O)(Cc1ccc(NC(=O)/C=C/c2cnn(C)c2-c2cccc3ccccc23)cc1)OC,207 to 209
15,CCOP(=O)(Cc1ccc(NC(=O)/C=C/c2cnn(C)c2-c2cccc3ccccc23)cc1)OCC,229 to 231
16,COP(=O)(Cc1ccc(NC(=O)/C=C/c2cnn(C)c2-c2cccc(F)c2)cc1)OC,224 to 226
17,CCOP(=O)(Cc1ccc(NC(=O)/C=C/c2cnn(C)c2-c2cccc(F)c2)cc1)OCC,205 to 206
18,COP(=O)(Cc1ccc(NC(=O)/C=C/c2cnn(C)c2-c2ccc(C)cc2)cc1)OC,207 to 209
19,CCOP(=O)(Cc1ccc(NC(=O)/C=C/c2cnn(C)c2-c2ccc(C)cc2)cc1)OCC,243 to 245
20,CCOP(=O)(Cc1cccc(NC(=O)/C=C/c2cnn(C)c2-c2ccc(F)cc2)c1)OCC,170 to 172
21,CCOP(=O)(Cc1ccccc1NC(=O)/C=C/c1cnn(C)c1-c1ccc(F)cc1)OCC,168 to 169

row,SMILES,melting point [°C]
1,CCOP(=O)(OCC)c1ccc(NC(=O)/C=C/c2cnn(C)c2-c2ccc(F)cc2)cc1,174 to 176
2,CCOP(=O)(CCc1ccc(NC(=O)/C=C/c2cnn(C)c2-c2ccc(F)cc2)cc1)OCC,157 to 158
3,CCOP(=O)(Cc1ccc(NC(=O)/C=C/c2cnn(C)c2-c2ccc(F)cc2)c(C)c1)OCC,154 to 155
4,CCOP(=O)(Cc1ccc(NC(=O)/C=C/c2cnn(Cc3ccccc3)c2-c2ccc(F)cc2)cc1)OCC,207 to 208
5,CCn1ncc(/C=C/C(=O)Nc2ccc(CP(=O)(OC)OC)cc2)c1-c1ccc(F)cc1,187 to 189
6,CCOP(=O)(Cc1ccc(NC(=O)/C=C/c2cnn(CC)c2-c2ccc(F)cc2)cc1)OCC,226 to 227
7,COP(=O)(Cc1ccc(NC(=O)/C=C/c2c(C)nn(C)c2-c2ccc(F)cc2)cc1)OC,195 to 198
8,CCOP(=O)(Cc1ccc(NC(=O)/C=C/c2c(C)nn(C)c2-c2ccc(F)cc2)cc1)OCC,159 to 160
9,COc1ccc(-c2c(/C=C/C(=O)Nc3ccc(CP(=O)(OC)OC)cc3)cnn2C)cc1,199 to 200
10,COP(=O)(Cc1ccc(NC(=O)/C=C/c2cnn(C)c2-c2ccco2)cc1)OC,201 to 202
11,CCOP(=O)(Cc1ccc(NC(=O)/C=C/c2cnn(C)c2-c2ccco2)cc1)OCC,195 to 196
12,CCOP(=O)(OCC)C(OC)c1ccc(NC(=O)/C=C/c2cnn(C)c2-c2ccc(F)cc2)cc1 (stereo not drawn),200 to 201
13,CCOP(=O)(OCC)C(O)c1ccc(NC(=O)/C=C/c2cnn(C)c2-c2ccc(F)cc2)cc1 (stereo not drawn),194 to 195
14,CCOP(=O)(Cc1ccc(NC(=O)/C=C/c2cn(C)nc2-c2ccc(F)cc2)cc1)OCC,197 to 198
15,CCOP(=O)(Cc1ccc(NC(=O)/C=C/c2c(-c3ccc(F)cc3)cnn2C)cc1)OCC,138 to 139
16,CCOP(=O)(Cc1ccc(NC(=O)/C=C/c2nn(C)cc2-c2ccc(F)cc2)cc1)OCC,203 to 204
17,CCOP(=O)(Cc1ccc(NC(=O)CCc2cnn(C)c2-c2ccc(F)cc2)cc1)OCC,143 to 144
18,COP(=O)(Cc1ccc(NC(=O)CCc2cnn(C)c2-c2ccc(F)cc2)cc1)OC,142 to 143
19,COP(=O)(Cc1ccc(NC(=O)/C=C/c2cnn(C)c2-c2cccc(Cl)c2)cc1)OC,248 to 249
20,COP(=O)(Cc1ccc(NC(=O)/C=C/c2cncn2-c2ccc(F)cc2)cc1)OC,108 to 109
21,CCOP(=O)(Cc1ccc(NC(=O)/C=C/c2nncn2-c2ccc(F)cc2)cc1)OCC,217 to 218

row,SMILES,melting point [°C]
1,CCOP(=O)(Cc1ccc(NC(=O)/C=C/c2cnn(C)c2-c2cccc(Cl)c2)cc1)OCC,214 to 216
2,COP(=O)(Cc1ccc(NC(=O)/C=C/c2snnc2-c2ccc(F)cc2)cc1)OC,196 to 197
3,CCOP(=O)(Cc1ccc(NC(=O)/C=C\c2cnn(C)c2-c2ccc(OC)cc2)cc1)OCC,187 to 188
4,COc1ccc(-c2c(/C=C\C(=O)Nc3ccc(CP(=O)(OC)OC)cc3)cnn2C)cc1,172 to 173
5,COP(=O)(Cc1ccc(NC(=O)/C=C/c2cnn(C)c2-c2ccc(Cl)cc2)cc1)OC,209 to 210
6,CCOP(=O)(Cc1ccc(NC(=O)CCc2cnn(-c3ccccc3)c2-c2ccccc2)cc1)OCC,157 to 159
7,"CCOC(=O)Cc1ccc(NC(=O)CCc2cnn(-c3ccccc3)c2-c2ccccc2)cc1 [Example 81, N-[4-(Ethoxycarbonylmethyl)phenyl]-3-(1,5-diphenyl-1H-pyrazol-4-yl)propionamide]",143 to 144
8,"COC(=O)c1ccc(NC(=O)CCc2cnn(-c3ccccc3)c2-c2ccccc2)cc1 [Example 82, N-[4-(Methoxycarbonyl)phenyl]-3-(1,5-diphenyl-1H-pyrazol-4-yl)propionamide]",196 to 197
9,"O=C(O)Cc1ccc(NC(=O)CCc2cnn(-c3ccccc3)c2-c2ccccc2)cc1 [Example 83, (4-{[3-(1,5-diphenyl-1H-pyrazol-4-yl)propanoyl]amino}phenyl)acetic acid]",199 to 201
10,"CCCc1nnc(Cc2ccc(NC(=O)/C=C/c3cnn(C)c3-c3ccc(F)cc3)cc2)o1 [Example 85, (2E)-3-[5-(4-fluorophenyl)-1-methyl-1H-pyrazol-4-yl]-N-{4-[(5-propyl-1,3,4-oxadiazol-2-yl)methyl]phenyl}acrylamide]",154 to 155
11,"Cn1ncc(/C=C/C(=O)Nc2ccc(Cc3n[nH]c(=O)o3)cc2)c1-c1ccc(F)cc1 [Example 86, (2E)-3-[5-(4-Fluorophenyl)-1-methyl-1H-pyrazol-4-yl]-N-{4-[(5-oxo-4,5-dihydro-1,3,4-oxadiazol-2-yl)methyl]phenyl}acrylamide]",262 to 263
12,"Cn1ncc(/C=C/C(=O)Nc2ccc(Cc3nnn[nH]3)cc2)c1-c1ccc(F)cc1 [Example 87, (2E)-3-[5-(4-Fluorophenyl)-1-methyl-1H-pyrazol-4-yl]-N-[4-(1H-tetrazol-5-ylmethyl)phenyl]acrylamide]",252 to 253
13,"CCc1nnc(CCc2ccc(NC(=O)/C=C/c3cnn(C)c3-c3ccc(F)cc3)cc2)o1 [Example 88, (2E)-N-{4-[2-(5-Ethyl-1,3,4-oxadiazol-2-yl)ethyl]phenyl}-3-[5-(4-fluorophenyl)-1-methyl-1H-pyrazol-4-yl]acrylamide]",167 to 168
14,"Cn1ncc(/C=C/C(=O)Nc2ccc(CCc3nnco3)cc2)c1-c1ccc(F)cc1 [Example 89, (2E)-3-[5-(4-Fluorophenyl)-1-methyl-1H-pyrazol-4-yl]-N-{4-[2-(1,3,4-oxadiazol-2-yl)ethyl]phenyl}acrylamide]",177 to 178
15,"CCc1nc(CCc2ccc(NC(=O)/C=C/c3cnn(C)c3-c3ccc(F)cc3)cc2)cs1 [Example 90, (2E)-N-{4-[2-(2-Ethyl-1,3-thiazol-4-yl)ethyl]phenyl}-3-[5-(4-fluorophenyl)-1-methyl-1H-pyrazol-4-yl]acrylamide]",190 to 191
16,"Cn1ncc(/C=C/C(=O)Nc2ccc(OCc3cscn3)cc2)c1-c1ccc(F)cc1 [Example 92, (2E)-3-[5-(4-Fluorophenyl)-1-methyl-1H-pyrazol-4-yl]-N-[4-(1,3-thiazol-4-ylmethoxy)phenyl]acrylamide]",171 to 172
17,"CCc1nc(COc2ccc(NC(=O)/C=C/c3cnn(C)c3-c3ccc(F)cc3)cc2)cs1 [Example 93, (2E)-N-{4-[(2-Ethyl-1,3-thiazol-4-yl)methoxy]phenyl}-3-[5-(4-fluorophenyl)-1-methyl-1H-pyrazol-4-yl]acrylamide]",98 to 99
18,"Cn1ncc(/C=C/C(=O)Nc2ccc(OCc3nnco3)cc2)c1-c1ccc(F)cc1 [Example 94, (2E)-3-[5-(4-Fluorophenyl)-1-methyl-1H-pyrazol-4-yl]-N-[4-(1,3,4-oxadiazol-2-ylmethoxy)phenyl]acrylamide]",154 to 155
19,"Cc1coc(Cc2ccc(NC(=O)/C=C/c3cnn(C)c3-c3ccc(F)cc3)cc2)n1 [Example 95, (2E)-3-[5-(4-Fluorophenyl)-1-methyl-1H-pyrazol-4-yl]-N-{4-[(4-methyl-1,3-oxazol-2-yl)methyl]phenyl}acrylamide]",220 to 221
20,"Cn1ncc(/C=C/C(=O)Nc2ccc(Cc3ccccn3)cc2)c1-c1ccc(F)cc1 [Example 96, (2E)-3-[5-(4-Fluorophenyl)-1-methyl-1H-pyrazol-4-yl]-N-[4-(pyridin-2-ylmethyl)phenyl]acrylamide]",215 to 216
21,"Cc1nnc(COc2ccc(NC(=O)/C=C/c3cnn(C)c3-c3ccc(F)cc3)cc2)o1 [Example 97, (2E)-3-[5-(4-Fluorophenyl)-1-methyl-1H-pyrazol-4-yl]-N-{4-[(5-methyl-1,3,4-oxadiazol-2-yl)methoxy]phenyl}acrylamide]",117 to 118
